Experimental data as given in patent US11464840B2, “Universal non-classical MHC I vaccines: HLA-E-restricted antigenic peptides as universal vaccines to treat allergy, inflammation, autoimmune and infectious diseases, and cancers” (priority 2019, dated 2022).
Several values for one entry are separate records, joined by “and”; a condition that tells them apart may be missing. Identical values can stand only once. Ends that are not written are not given here.

Key:
HLA-E [1] = test: ELISA of renatured HLA-E binding to biotinylated leader peptide (C3N); parameters: species or system human
Description: FIG. 2. […] ELISA for the interaction of denatured HLA-E or covalent HLA-E-β2 microglobulin fusion protein with biotinylated HLA-A2 leader peptide. 10 μg of denatured recombinant HLAE-β2 microglobulin fusion protein, or denatured HLA-E incubated with biotinylated A2 leader peptide (SEQ ID NO: 50, […]) with or without 10 μg β2 microglobulin in 50 μl buffer A (0.5 mM-Tris pH at 6.6) at 18° C. for two days. The complexes were then added into anti-HLA E antibody coated plate (2 μg/ml) and incubated for 1 hour. After washing three times with 1% BSA PBS, HRP-Avidin (Biolegend #405103, 1:1000) was used to detect bound biotinylated leader peptide.
A conformation capture of canonical/non-canonical peptide (C3N) method to HLA-E is designed to test predicted HLA-E binding peptides. HLA-E canonical and nominal peptides predicted from the python algorithm of Igepredict program and any 9 to 12-mer made collinearly with an overlapping IgE sequence can be tested by a binding assay. […] The assay for intact re-natured conformation of HLA-E is dependent on gaining the binding signal using anti-HLA-E coated plate to capture re-natured HLA-E in the presence of beta 2 microglobulin and leader peptides.

HLA-G = test: Surface HLA-G expression in PBMCs (FACS); assay type: cell-based, human; conditions: anti-CD3 coated plate, 4 days
Description: (§1) FIG. 6. Modulation of surface HLA-G and HLA-E expression in PBMCs in present of interferon-β. Fresh buffy coat was obtained from San Diego blood blank. PBMCs (peripheral blood mononuclear cells) were isolated by density gradient centrifugation with Histopague-1077 (Sigma). 5×10^5 of PBMCs were seeded in anti-CD3 (10 μg/ml) coated 96 wells-plate and treated with interferon-I3 for 4 days. Cells were collected and stained with fluorescence-conjugated antibody; Alexa Fluor 488-conjugated anti-human CD8a (Biolegend), Pacific Blue-conjugated human CD4, APC-Cy7-conjugated human CD19 and PE conjugated-HLA-E or PE-Cy 7 conjugated HLA-G (Panel A) or HLA-E (Panel B), followed by fixation with 2% paraformaldehyde. Phenotype and HLA-E or HLA-G (Biolegend) expression were performed by using a FACS, LRSII flow cytometry and the data were processed as describe above.

HLA-E [2] = test: Surface HLA-E expression in PBMCs (FACS); assay type: cell-based, human; conditions: anti-CD3 coated plate, 4 days
Description: as §1

HLA-E [3] = test: Surface HLA-E expression in immature MoDC cells (FACS); assay type: cell-based, human; conditions: 100 nM SR11237, 100 nM Bexarotene or Interferon-β 1,000 U, 4 days
Description: FIG. 5. […] MoDCs were then collected and stained with fluorescence-conjugated antibody; APC-conjugated anti-CD83 (Biolegend) and PE-conjugated HLA-E (Biolegend) followed by fixation with 2% paraformaldehyde. Phenotype and HLA-E expression of MoDCs were performed by using a FACS, LRSII flow cytometry and the data were processed by using the Flowjo software.

HLA-E [4] = test: Upregulation of surface HLA-E by peptide nonamers in TAP-deficient T2 cells (FACS); assay type: cell-based, human; conditions: overnight incubation with peptide
Description: FIG. 3. Upregulation of surface HLA-E by peptide nonamers. Screening 9-mers of IgE epitope that were able to induce surface HLA-E expression in tap deficient T2 cells. T2 cells were cultured overnight in present of Panel A: A2 leader peptide-SEQ ID NO: 51, […]) or IgE epitope, B5 (SEQ ID NO: 52, […]), B6 (SEQ ID NO: 53, […]), B8 (SEQ ID NO: 54, […]) and B9 (SEQ ID NO: 55, […]), SP4 (SEQ ID NO: 56, […]), SP7 (SEQ ID NO: 57, […]) and SP11 (SEQ ID NO: 58, […]), and Panel B: IgE epitope of Mixture1 (SEQ ID NO: 59, […], […], […], […] and […]), Mixture2 (SEQ ID NO: 60: […], […], […], […] and […]), and Mixture 3 (SEQ ID NO: 61, […], SGYTPGTIN, […], […] and TINITWLED) at the concentration of 100 μg/ml. Cells were then collected and stained with PE conjugated HLA E followed by FACS flow cytometry analysis.
FIG. 12. Screening of IgE epitope 9-mer which can induce surface HLA-E expression in TAP-deficient T2 cells. Peptide E33 ([…], SEQ ID NO: 68) was predicted by Ige Predict program. T2 cells (2.5×10^5 cells/well) were cultured in the presence of E33 peptide or HLA-A2 leader peptide (10 μg/mL) in 96-well cell culture plate for overnight. Cell were collected and stained with PE anti-human HLA-E antibody followed by flow cytometric analysis (Panel A). […]

Derlin-1 mRNA [5] = test: Derlin-1 mRNA knockdown by siRNA in monocyte-derived dendritic cells (qPCR, ΔΔCt); assay type: cell-based, human; conditions: MODC
Description: (§2) Table 1: Summary of Derlin-1 Knockdowns with Various siRNAs. Cells transfected in 12 well plate at 60%-80% confluency. one ul Viromer blue was used per 1 ml final volume. Cells were lysed via centrifugation and resuspended in TRI reagent at time points of either 6 h, 24 h, and 48 h. Lysates were split for both protein verification and qPCR. Knockdowns are estimated using the ΔΔCt method. […] Anti-Derlin-1 siRNA was designed using MITs website (sirna.wi.mit.edu) and siRNA design software (dharmacon.horizondiscovery.com/rnai/sirna). SiRNA were chosen based on the criteria that they would bind no more than 15 nucleotides on off-target mRNA and that they would be capable of knockdown for all four of the Derlin-1 mRNA isoforms. Additionally, siRNAs with 40-60% GC content, no more than 3 identical nucleotides in a row, and 3′ UU overhangs were used. The first siRNA (SEQ ID NO: 65, 5′-[…]-3′) was purchased from TriLink Biotechnologies and the second (SEQ ID NO: 66, 5′-[…]-3′) was purchased from Horizon Discovery. A third, modified siRNA with sequence 5′-SEQ ID NO: 67, O′me/G/O′me/[…]-3′ and DNA bases on the 1st and 8th nucleotide of the antisense strand was also designed and purchased from Horizontal Discovery. Scramble siRNAs were purchased from Horizontal Discovery (D-001810-10-05, ON-TARGET plus Non-targeting Pool).
Derlin-1 forms an integral part of the […] machinery required for transporting classical MHCI, e.g., HLA-A, -B, -C for proteasome degradation. […] In contrast, the protein band of Derlin-1 is entirely missing in Derlin-1 siRNA-treated MoDCs. Transfection of the primary cells were performed using PEI reagents (Viromer Blue vs. Viromer Red). The embodiment of the invention is three-fold. One aspect of the embodiment resides in treating APC with Derlin-1 RNA interference to prevent the generation of endogenous leader peptide as well as to cause dissociation of the HLA-E bound endogenous leader peptides so that Derlin-1-treated APC can be fully loaded with the HLA-E vaccines in the presence of the second costimulatory signal for immune induction.

Derlin-1 mRNA [6] = test: Derlin-1 mRNA knockdown by siRNA in T2 cells (qPCR, ΔΔCt); assay type: cell-based, human
Description: as §2, with “Pool). […]” for “Pool).”

Substance: NPRKVTAYL (also: biotin, place not given here; listed as Homo sapiens) [HLA-E leader peptide]
- increment of HLA-E binding signal (HLA-E [1]; leader peptide 1.0 μg/ml versus 0.1 μg/ml): ~10 fold and ~15 fold
- HLA-E binding signal (ELISA) (HLA-E [1]; leader peptide addition at 0.1 μg/ml): around 0.02 OD

Substance: Interferon β
- expression of HLA-G in CD4+ T cells (HLA-G): about two-fold
- expression of HLA-G in CD8+ T cells (HLA-G): about two-fold
- expression of HLA-G in CD19+ cells (HLA-G): increased
- HLA-E expression in CD4+ T cells (HLA-E [2]): decrease
- HLA-E expression in CD8+ T cells (HLA-E [2]): decrease
- HLA-E expression in CD19+ cells (HLA-E [2]): increased
- HLA-E expression of immature MoDC cells (HLA-E [3]): increasing intense expression

Substance: TMTLPATTL (listed as Homo sapiens) [E33]
- surface expression of HLA-E in T2 cells (HLA-E [4]): stronger upregulation

Substance: O′me/G/O′me/ACUUGGGAGGAAGAAAUUU-3′ (siRNA; 2'-O-methyl at sense 5' end, DNA at antisense positions 1 and 8, further chemistry not given here; listed as Homo sapiens) [Derlin siRNA #3]
- Derlin-1 mRNA knockdown (KD) (Derlin-1 mRNA [5]; 5 nM siRNA, Day 1): 62%
- Derlin-1 mRNA knockdown (KD) (Derlin-1 mRNA [5]; 5 nM siRNA, Day 2): 37%
- Derlin-1 mRNA knockdown (KD) (Derlin-1 mRNA [5]; 10 nM siRNA, Day 1): 41%
- Derlin-1 mRNA knockdown (KD) (Derlin-1 mRNA [5]; 10 nM siRNA, Day 2): 33%
- Derlin-1 mRNA knockdown (KD) (Derlin-1 mRNA [6]; T2, 1 nM siRNA, 6 Hours): 59%
- Derlin-1 mRNA knockdown (KD) (Derlin-1 mRNA [6]; T2, 2 nM siRNA, 6 Hours): 33%
- Derlin-1 mRNA knockdown (KD) (Derlin-1 mRNA [6]; T2, 4 nM siRNA, 6 Hours): 28%
- Derlin-1 mRNA knockdown (KD) (Derlin-1 mRNA [6]; T2, 8 nM siRNA, 6 Hours): 17%

Substance: 5′-GAGGCCAGCAGACUAUUUAUU-3′ [Derlin siRNA #1]
- Derlin-1 mRNA knockdown (KD) (Derlin-1 mRNA [5]; 25 nM siRNA, Day 1): 36%
- Derlin-1 mRNA knockdown (KD) (Derlin-1 mRNA [5]; 50 nM siRNA, Day 1): 30%
- Derlin-1 mRNA knockdown (KD) (Derlin-1 mRNA [6]; T2, 5 nM siRNA, Day 1): 32%
- Derlin-1 mRNA knockdown (KD) (Derlin-1 mRNA [6]; T2, 5 nM siRNA, Day 2): 19%
- Derlin-1 mRNA knockdown (KD) (Derlin-1 mRNA [6]; T2, 10 nM siRNA, Day 1): 50%
- Derlin-1 mRNA knockdown (KD) (Derlin-1 mRNA [6]; T2, 10 nM siRNA, Day 2): 10%
- Derlin-1 mRNA knockdown (KD) (Derlin-1 mRNA [6]; T2, 20 nM siRNA, Day 1): 25%
- Derlin-1 mRNA knockdown (KD) (Derlin-1 mRNA [6]; T2, 20 nM siRNA, Day 2): 29%

Substance: VMAPRTLLL (VMAPRTLVL; listed as Homo sapiens) [A 2 leader peptide, reference compound]
- surface expression of HLA-E in T2 cells (HLA-E [4]): enhanced surface expression
